Experiments:
rat hepatoma cells = experiment: TBARS assay of ROS in cell lysates of rat hepatoma cells; type: cell-based; details: fatty acid alone
Summary of the method: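 Rat hepatoma cells pre-incubated with DHA alone or DHA plus co-treatments (iron chelator DFX or lipid antioxidants), pulse-labelled 15 min with radiolabelled Met/Cys then chased in unlabelled medium. ROS in cell lysates at end of chase measured by standard TBARS assay, compared against BSA control.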

rat primary hepatocytes = experiment: Secretion of newly synthesized ([35S]methionine-labeled) VLDL-apoproteins by rat primary hepatocytes incubated with fatty acid/BSA complexes; type: cell-based; details: fatty acid/BSA complexes (0.8 mM FA), VLDL fraction
Experimental: Cells were plated at a density of 2×10^6 cells/ml on 60-mm culture dishes (previously coated with poly-D-lysine) in modified M199 medium (M199, 1% fetal bovine serum [FBS], 1 mM nicotinamide, 0.1 nM insulin, 3 mg/ml choline, 1.1% L-glutamine, 1% BSA). After a four-hour attachment period, the medium was changed (modified M199 identical to the above except BSA was omitted and the concentration of FBS was raised to 10%). The next morning, cells were washed in serum-free medium three times, the experimental media added, and the cells incubated at 37° C. for 4-6 hours. The experimental medium consisted of serum-free RPMI containing the appropriate isotopes (see below) and fatty acids (FA) present at a final concentration of 0.8 mM complexed to BSA (FA:BSA molar ratio=5:1). The fatty acids used were oleic (OA), EPA, and DHA. Control medium was identical, except that BSA (0.16 mM) without fatty acids was present. For metabolic labeling of proteins, [^35S]methionine (70 uCi/ml) was included in the experimental media.
Following the 4-6 hour incubation period, the cell monolayer was washed, then solubilized in 0.1 M NaOH, and the cell protein determined by the Lowry method (Lowry, O. H., Rosebrough, N. J., Farr, A. L., and Randall, R. J. (1951) J Biol Chem 193, 265-75). Each 60 mm dish contained approximately 1-1.5 mg of cell protein. The secreted apoproteins were isolated from the medium either by ultracentrifugation or immunoprecipitation. To isolate the d<1.006 (VLDL) and 1.006<d<1.063 (IDL and LDL) g/ml density classes by centrifugation, sequential 20 hour runs at 48,000 rpm in a 50 Ti Beckman rotor at 4° C. were performed. After the first run at d=1.006, the upper VLDL layer was harvested and the density of the infranatant adjusted to 1.066 g/ml with solid KBr. After being overlaid with a KBr solution of density 1.063, the adjusted infranatant was re-centrifuged as before to isolate the IDL and LDL fractions. In some experiments, the HDL fraction (1.063<d<1.21) was isolated by sequential density centrifugation. Lipoprotein fractions were then dialyzed against 0.9% NaCl containing 10 mM unlabeled methionine, 0.2 mM PMSF, and 2 mM EDTA. Dialyzed lipoproteins were delipidated using 9 volumes of 100% isopropanol. Apoproteins were then collected by centrifugation in a Sorval HB-4 rotor at 10,000 rpm and 4° C. for 20 min, and dissolved in buffer (0.01 M phosphate, pH 7,1 % SDS, 10% glycerol), in preparation for electrophoresis.
To immunoprecipitate apoB or apoE from unfractionated conditioned medium, monospecific rabbit antiserum to rat apoB or apoE was used. Briefly, an aliquot of the medium was mixed with an equal volume of diluted antiserum (1:100 in PBS and 1% BSA) and incubated overnight at 4° C. Staph A was added in the form of immunoprecipitin, and the resultant precipitate containing the immune complexes was washed extensively, the staph A cells removed, and the isolated apoprotein dissolved in gel sample buffer (0.0625M tris/Cl, pH 6.8, 20% glycerol, 2% SDS). Electrophoretic separation of apoVLDL, apoIDL/LDL, and immunoprecipitates was accomplished using 3.5% acrylamide-18% glycerol gels as described (Maguire, G. F., Lee, M., and Connelly, P. W. (1989) J Lipid Res 30, 757-61). An aliquot of each sample was taken for scintillation counting, so that total radioactivity applied to each lane could be determined. Also, protein size standards were included in each gel.
After electrophoresis, the gels were stained, fixed, soaked in Enhance fluor solution, and dried following protocols supplied by the manufacturer. Dried gels were then exposed to X-ray film at −70° C. and signals on the resulting fluorograms were typically quantified by densitometry or phosphorimaging. Using the total radioactivity applied to each lane of the gel and the relative signal intensity of each band in that lane, the radioactivity associated with each apoprotein species was calculated. […]

SMILES: CCCCCCCC/C=C\CCCCCCCC(=O)O [OA, oleic acid]
- reactive oxygen species (ROS), TBARS assay, fatty acid compared to BSA (rat hepatoma cells): does not increase
- secretion of newly synthesized VLDL-ApoB48, percentage of secretion observed with BSA alone (rat primary hepatocytes): 132 ± 11 percentage
- secretion of newly synthesized VLDL-ApoB100, percentage of secretion observed with BSA alone (rat primary hepatocytes): 96 ± 4 percentage
- secretion of newly synthesized VLDL-ApoE, percentage of secretion observed with BSA alone (rat primary hepatocytes): 84 ± 3 percentage

Source: patent US20030170643A1, “Regulation of apoB treatment and drug screening for cardiovascular and metabolic disorders or syndromes” (priority 1999, published 2003)
